Results from patent US11978600B2, “Dielectric-insulation or arc-extinction fluid” (HITACHI ENERGY LTD, priority 2019, dated 2024).

Key:
[1] = Decomposition rate under partial discharge in the presence of oxygen; assay type: physicochemical; details: gas mixture with O2 and CO2 (4 vol.-% 2-C4HF7, 4 vol.-% O2, 92 vol.-% CO2); needle-plane electrodes, positive DC 0-35 kV
Protocol: The decomposition rate of 2-C4HF7 in a gas mixture containing carbon dioxide and oxygen were tested. Specifically, a gas mixture containing 4 vol.-% 2-C4HF7, 4 vol.-% O2 and 92 vol.-% CO2 was subjected to partial discharge tests and the resulting decomposition was determined.
Specifically, an experimental setup consisting of a standard GIS-vessel (volume: 55 L) with a needle-plane electrode arrangement was used. A total of ten steel needles (R_100 μm) were connected to a high voltage DC power supply (positive, 0-35 kV). The gap spacing was set to 10 mm. The vessel was equipped with a fan keeping the gas mixture homogeneous during the experiments.

[2] = Dielectric withstand test (breakdown voltage, step DC, uniform field); assay type: physicochemical
Protocol: In addition to these tests, the dielectric strength of a mixture containing a monohydrofluoroolefin according to various embodiments, specifically 2-C4HF7, and having a dew point of −5° C. and −30° C., respectively, was determined and compared to the respective dielectric strength of the perfluoroketone decafluoro-3-methylbutan-2-one (“C5”).
Specifically, dielectric withstand tests were performed under DC (step DC, rise-time 300 ns, maximum application time 30 s) in a small vessel (6 L) and custom-built for dielectric testing. Large electrodes (12 cm diameter) with a Rogowski-profile and separated by a small (1.0 cm) distance were used to obtain a uniform field. Prior to the test, the electrodes were sandblasted to create a uniform surface roughness profile (Rt=40 μm).
A large amount of measurements (typically, more than 100) of measurements were performed; the peak voltage level used for each voltage application was randomly selected in the region close to U50, the voltage level for which a 50% breakdown probability is expected. The outcome (breakdown or hold) of each measurement is extracted from the time-dependence of the voltage across the test object. A probit regression is then used to fit the results to a probability distribution and to extract U50 and s, the width of the breakdown probability distribution, from the measurement data.

| SMILES | decomposition rate under partial discharge [1] | breakdown voltage ([2]; negative direct current, mixture, partial pressure 228 mbar at 20° C.) | breakdown voltage ([2]; positive direct current, mixture, partial pressure 228 mbar at 20° C.) | breakdown voltage ([2]; negative direct current, mixture with O2 and CO2, dew point -5° C.) | breakdown voltage ([2]; negative direct current, mixture with O2 and CO2, dew point -30° C.) | breakdown voltage ([2]; positive direct current, mixture with O2 and CO2, dew point -5° C.) | breakdown voltage ([2]; positive direct current, mixture with O2 and CO2, dew point -30° C.) |
| --- | --- | --- | --- | --- | --- | --- | --- |
| FC(=C(F)C(F)(F)F)C(F)(F)F [2-C4F8, octafluorobutene] | 7 mmol/C | 17.5 kV/mm | 17.7 kV/mm |  |  |  |  |
| O=C(C(F)(F)F)C(F)(C(F)(F)F)C(F)(F)F [C5, 1,1,1,3,4,4,4-heptafluoro-3-(trifluoromethyl)-butan-2-one] |  |  |  | 19.2 kV/mm | 16.5 kV/mm | 19.7 kV/mm | 16.9 kV/mm |
